Active and inactive are the calls of the source. No cut-off for these calls is given here.
Tests used:
[1] = biological target: T1, Mitogen-activated protein kinase 8 (Homo sapiens, UniProt P45983); experiment: Inhibition of N-terminal GST-tagged recombinant full length human JNK1 expressed in baculovirus infected Sf9 insect cells using IPTTPITTTYFFFKKK as substrate at 0.1 uM incubated for 60 mins in the presence of ATP by ADP-Glo reagent based luminescence assay relative to control
[2] = biological target: Mitogen-activated protein kinase 10 (Homo sapiens, UniProt P53779); experiment: Inhibition of N-terminal GST-tagged recombinant full length human JNK3 expressed in baculovirus infected Sf9 cells using IPTTPITTTYFFFKKK as substrate at 1 uM incubated for 60 mins in the presence of ATP by ADP-Glo reagent based luminescence assay relative to control
[3] = biological target: T1, Mitogen-activated protein kinase 8; experiment: Inhibition of N-terminal GST-tagged recombinant full length human JNK1 expressed in baculovirus infected Sf9 insect cells using IPTTPITTTYFFFKKK as substrate incubated for 60 mins in the presence of ATP by ADP-Glo reagent based luminescence assay
[4] = biological target: Mitogen-activated protein kinase 9 (Homo sapiens, UniProt P45984); experiment: Inhibition of N-terminal GST-tagged recombinant full length human JNK2 expressed in baculovirus infected Sf9 cells using IPTTPITTTYFFFKKK as substrate incubated for 60 mins in the presence of ATP by ADP-Glo reagent based luminescence assay
[5] = biological target: Mitogen-activated protein kinase 3 (Homo sapiens) (UniProt P27361); experiment: Inhibition of ERK1 (unknown origin) at 1 uM preincubated for 10 mins followed by substrate addition and measured after 60 mins in the presence of ATP by ADP-Glo reagent based luminescence assay relative to control; conditions: time 70.0 min
[6] = biological target: Mitogen-activated protein kinase 1 (Homo sapiens) (UniProt P28482); experiment: Inhibition of ERK2 (unknown origin) at 1 uM preincubated for 10 mins followed by substrate addition and measured after 60 mins in the presence of ATP by ADP-Glo reagent based luminescence assay relative to control; conditions: time 70.0 min
[7] = biological target: T2, Dual specificity mitogen-activated protein kinase kinase 4 (Homo sapiens) (UniProt P45985); experiment: Inhibition of MAP2K4 (unknown origin) at 1 uM preincubated for 10 mins followed by substrate addition and measured after 60 mins in the presence of ATP by ADP-Glo reagent based luminescence assay relative to control; conditions: time 70.0 min
T2 sequence (whole entry): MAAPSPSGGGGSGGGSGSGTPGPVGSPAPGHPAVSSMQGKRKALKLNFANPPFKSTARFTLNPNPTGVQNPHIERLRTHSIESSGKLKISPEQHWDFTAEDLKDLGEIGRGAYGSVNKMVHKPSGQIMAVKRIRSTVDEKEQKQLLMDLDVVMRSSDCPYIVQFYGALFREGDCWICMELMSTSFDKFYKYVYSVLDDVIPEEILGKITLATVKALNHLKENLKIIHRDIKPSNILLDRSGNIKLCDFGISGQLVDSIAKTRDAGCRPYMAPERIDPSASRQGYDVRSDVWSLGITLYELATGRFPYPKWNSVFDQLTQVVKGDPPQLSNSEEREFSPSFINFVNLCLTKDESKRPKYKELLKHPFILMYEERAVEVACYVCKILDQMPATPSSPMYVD

[8] = biological target: T3, Dual specificity mitogen-activated protein kinase kinase 7 (Homo sapiens) (UniProt O14733); experiment: Inhibition of MAP2K7 (unknown origin) at 1 uM preincubated for 10 mins followed by substrate addition and measured after 60 mins in the presence of ATP by ADP-Glo reagent based luminescence assay relative to control; conditions: time 70.0 min
T3 sequence (whole entry): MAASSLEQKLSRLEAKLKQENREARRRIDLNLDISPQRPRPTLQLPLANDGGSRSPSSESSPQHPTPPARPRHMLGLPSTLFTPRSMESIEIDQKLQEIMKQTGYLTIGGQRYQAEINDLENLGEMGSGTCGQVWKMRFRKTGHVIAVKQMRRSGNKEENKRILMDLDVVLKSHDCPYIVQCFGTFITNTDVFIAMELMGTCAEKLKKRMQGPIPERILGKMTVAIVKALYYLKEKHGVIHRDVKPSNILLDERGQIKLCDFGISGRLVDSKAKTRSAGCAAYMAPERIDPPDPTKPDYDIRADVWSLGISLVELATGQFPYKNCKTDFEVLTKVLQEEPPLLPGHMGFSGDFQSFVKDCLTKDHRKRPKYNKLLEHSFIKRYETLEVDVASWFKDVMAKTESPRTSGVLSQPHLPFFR

[9] = biological target: Dual specificity mitogen-activated protein kinase kinase 1 (Homo sapiens) (UniProt Q02750); experiment: Inhibition of MAP2K1 (unknown origin) at 1 uM preincubated for 10 mins followed by substrate addition and measured after 60 mins in the presence of ATP by ADP-Glo reagent based luminescence assay relative to control; conditions: time 70.0 min
[10] = biological target: Dual specificity mitogen-activated protein kinase kinase 2 (Homo sapiens) (UniProt P36507); experiment: Inhibition of MAP2K2 (unknown origin) at 1 uM preincubated for 10 mins followed by substrate addition and measured after 60 mins in the presence of ATP by ADP-Glo reagent based luminescence assay relative to control; conditions: time 70.0 min
[11] = biological target: c-Jun N-terminal kinase, JNK (Homo sapiens) (UniProt P45983+P53779+P45984); experiment: Inhibition of JNK in human NCI-H1299 cells assessed as inhibition of anisomycin-activated c-Jun phosphorylation preincubated for 1 hrs followed by anisomycin activation for 1 hrs by Western blot analysis; format: cell-based; conditions: dose 2-50 µM, time 2.0 hrs
[12] = biological target: c-Jun N-terminal kinase (Mus musculus) (UniProt Q91Y86+Q9WTU6+Q61831); experiment: Inhibition of JNK in mouse NIH-3T3 cells assessed as inhibition of anisomycin-activated c-Jun phosphorylation preincubated for 1 hrs followed by anisomycin activation for 1 hrs by Western blot analysis; format: cell-based; conditions: NIH3T3, dose 2-50 µM, time 2.0 hrs
[13] = MRT(0 to infinity) in Sprague-Dawley rat at 5 mg/kg, iv by HPLC-UV analysis; format: ADME, organism-based; conditions: in vivo
[14] = Cmax in Sprague-Dawley rat at 75 mg/kg, po by HPLC-UV analysis; format: ADME, organism-based; parameters: dose 75 mg/kg, route po; conditions: in vivo
[15] = system: Mus musculus; experiment: Anti-fibrotic activity in bleomycin-induced C57BL/6 mouse model of pulmonary fibrosis assessed as enhancement of lung respiratory function at 25 to 75 mg/kg, po administered twice a day for 3 weeks by spirometry analysis; format: functional, organism-based; conditions: dose 25-75 mg/kg
[16] = system: Mus musculus; experiment: Anti-fibrotic activity in bleomycin-induced C57BL/6 mouse model of pulmonary fibrosis assessed as increase in respiratory function by measuring tidal volume at 25 to 75 mg/kg, po administered twice a day for 3 weeks by spirometry analysis; format: functional, organism-based; conditions: dose 25-75 mg/kg
[17] = system: Mus musculus; experiment: Anti-fibrotic activity in bleomycin-induced C57BL/6 mouse model of pulmonary fibrosis assessed as alleviation of neutrophil infiltration in lungs at 25 to 75 mg/kg, po administered twice a day for 3 weeks by H&E staining based analysis; format: functional, organism-based; conditions: dose 25-75 mg/kg
[18] = system: Mus musculus; experiment: Anti-fibrotic activity in bleomycin-induced C57BL/6 mouse model of pulmonary fibrosis assessed as protection against BLM-induced death at 75 mg/kg, po administered twice a day for 3 weeks relative to control; format: functional
[19] = system: Mus musculus; experiment: Anti-fibrotic activity in bleomycin-induced C57BL/6 mouse model of pulmonary fibrosis assessed as alleviation of body weight loss at 25 to 75 mg/kg, po administered twice a day for 3 weeks; format: functional, organism-based; conditions: dose 25-75 mg/kg

T1 sequence (P45983 whole entry): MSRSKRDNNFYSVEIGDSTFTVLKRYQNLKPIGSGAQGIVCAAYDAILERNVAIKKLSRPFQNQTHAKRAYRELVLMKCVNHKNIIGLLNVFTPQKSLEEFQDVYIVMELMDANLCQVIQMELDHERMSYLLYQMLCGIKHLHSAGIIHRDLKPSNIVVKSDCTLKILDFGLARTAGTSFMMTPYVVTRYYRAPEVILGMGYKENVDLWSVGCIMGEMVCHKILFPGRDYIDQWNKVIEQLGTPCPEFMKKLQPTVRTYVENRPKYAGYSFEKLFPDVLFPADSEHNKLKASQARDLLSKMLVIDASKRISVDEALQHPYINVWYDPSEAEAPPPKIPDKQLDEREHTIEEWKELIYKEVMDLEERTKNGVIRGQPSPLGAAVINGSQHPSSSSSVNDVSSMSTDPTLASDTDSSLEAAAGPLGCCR
Chain of Dual specificity mitogen-activated protein kinase kinase 2 (Homo sapiens) (P36507 whole entry): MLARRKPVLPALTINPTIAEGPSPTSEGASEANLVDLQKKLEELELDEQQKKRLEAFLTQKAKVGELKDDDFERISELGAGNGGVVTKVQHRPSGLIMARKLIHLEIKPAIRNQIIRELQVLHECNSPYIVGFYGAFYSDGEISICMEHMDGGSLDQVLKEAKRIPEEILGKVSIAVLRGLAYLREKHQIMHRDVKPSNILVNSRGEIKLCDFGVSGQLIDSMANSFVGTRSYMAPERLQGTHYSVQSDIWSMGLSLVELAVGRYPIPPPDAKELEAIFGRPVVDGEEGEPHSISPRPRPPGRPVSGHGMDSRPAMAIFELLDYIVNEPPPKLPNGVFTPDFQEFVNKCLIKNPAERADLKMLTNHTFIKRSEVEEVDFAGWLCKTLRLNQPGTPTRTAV
Chain of Mitogen-activated protein kinase 10 (P53779 whole entry): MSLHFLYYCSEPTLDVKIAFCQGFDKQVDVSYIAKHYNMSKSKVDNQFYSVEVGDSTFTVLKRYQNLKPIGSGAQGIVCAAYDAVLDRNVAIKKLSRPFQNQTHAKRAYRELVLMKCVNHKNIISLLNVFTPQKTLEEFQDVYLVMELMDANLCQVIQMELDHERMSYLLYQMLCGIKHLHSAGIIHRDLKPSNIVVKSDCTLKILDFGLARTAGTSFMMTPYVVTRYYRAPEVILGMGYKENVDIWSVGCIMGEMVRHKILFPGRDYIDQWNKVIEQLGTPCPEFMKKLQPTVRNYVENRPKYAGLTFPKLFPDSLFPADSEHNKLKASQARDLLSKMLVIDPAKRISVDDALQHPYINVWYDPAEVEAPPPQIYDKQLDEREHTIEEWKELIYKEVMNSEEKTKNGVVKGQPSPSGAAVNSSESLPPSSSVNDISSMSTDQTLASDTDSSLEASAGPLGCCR
Chain of Mitogen-activated protein kinase 1 (Homo sapiens) (P28482 whole entry): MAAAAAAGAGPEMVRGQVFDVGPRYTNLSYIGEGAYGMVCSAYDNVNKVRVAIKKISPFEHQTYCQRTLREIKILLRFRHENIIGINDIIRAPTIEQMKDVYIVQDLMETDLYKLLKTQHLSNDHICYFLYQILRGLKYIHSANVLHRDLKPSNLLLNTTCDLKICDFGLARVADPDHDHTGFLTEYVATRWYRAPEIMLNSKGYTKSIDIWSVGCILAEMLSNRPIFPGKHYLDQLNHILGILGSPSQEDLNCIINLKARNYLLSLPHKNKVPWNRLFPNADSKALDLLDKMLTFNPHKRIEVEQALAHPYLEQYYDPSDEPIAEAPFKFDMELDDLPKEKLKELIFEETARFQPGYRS
Chain of Dual specificity mitogen-activated protein kinase kinase 1 (Homo sapiens) (Q02750 whole entry): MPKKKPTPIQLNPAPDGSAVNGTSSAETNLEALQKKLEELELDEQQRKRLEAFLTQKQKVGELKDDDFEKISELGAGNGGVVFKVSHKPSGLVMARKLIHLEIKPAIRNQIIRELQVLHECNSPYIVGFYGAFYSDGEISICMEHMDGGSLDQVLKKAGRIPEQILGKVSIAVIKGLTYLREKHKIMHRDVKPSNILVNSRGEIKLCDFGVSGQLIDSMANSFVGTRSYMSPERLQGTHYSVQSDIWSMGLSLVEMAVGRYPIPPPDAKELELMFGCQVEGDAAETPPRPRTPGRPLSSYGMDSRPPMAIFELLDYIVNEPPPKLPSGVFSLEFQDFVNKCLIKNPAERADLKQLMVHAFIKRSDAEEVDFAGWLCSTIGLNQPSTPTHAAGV
Chain of Mitogen-activated protein kinase 3 (Homo sapiens) (P27361 whole entry): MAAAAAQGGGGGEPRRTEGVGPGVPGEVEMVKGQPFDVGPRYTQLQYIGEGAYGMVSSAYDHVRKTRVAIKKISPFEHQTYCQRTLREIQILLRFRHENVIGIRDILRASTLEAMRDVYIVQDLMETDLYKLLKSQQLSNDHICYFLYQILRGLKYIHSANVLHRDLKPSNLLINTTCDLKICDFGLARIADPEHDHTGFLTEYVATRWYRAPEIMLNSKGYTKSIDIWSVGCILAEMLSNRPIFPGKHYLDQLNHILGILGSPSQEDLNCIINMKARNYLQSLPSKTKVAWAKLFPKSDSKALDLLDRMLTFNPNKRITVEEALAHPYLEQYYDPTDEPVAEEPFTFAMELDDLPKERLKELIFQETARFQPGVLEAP
Chain of Mitogen-activated protein kinase 9 (P45984 whole entry): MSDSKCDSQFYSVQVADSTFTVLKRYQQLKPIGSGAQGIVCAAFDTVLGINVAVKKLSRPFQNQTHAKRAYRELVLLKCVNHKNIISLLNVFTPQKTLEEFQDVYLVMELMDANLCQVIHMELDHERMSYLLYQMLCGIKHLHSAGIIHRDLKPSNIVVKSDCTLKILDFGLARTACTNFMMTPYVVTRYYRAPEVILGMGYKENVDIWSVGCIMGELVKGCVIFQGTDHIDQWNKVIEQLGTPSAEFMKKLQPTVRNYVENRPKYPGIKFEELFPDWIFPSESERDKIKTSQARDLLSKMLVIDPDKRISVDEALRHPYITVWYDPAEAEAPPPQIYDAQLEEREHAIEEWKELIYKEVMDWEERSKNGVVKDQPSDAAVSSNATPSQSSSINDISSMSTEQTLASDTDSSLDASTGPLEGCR
Chain of c-Jun N-terminal kinase (Mus musculus) (Q61831 whole entry, looked up): as the sequence (P53779 whole entry) above, with Q27H, Y32S, D267S, A345V, G412S, S432A counted along it
Chain of c-Jun N-terminal kinase (Mus musculus) (Q91Y86 whole entry, looked up): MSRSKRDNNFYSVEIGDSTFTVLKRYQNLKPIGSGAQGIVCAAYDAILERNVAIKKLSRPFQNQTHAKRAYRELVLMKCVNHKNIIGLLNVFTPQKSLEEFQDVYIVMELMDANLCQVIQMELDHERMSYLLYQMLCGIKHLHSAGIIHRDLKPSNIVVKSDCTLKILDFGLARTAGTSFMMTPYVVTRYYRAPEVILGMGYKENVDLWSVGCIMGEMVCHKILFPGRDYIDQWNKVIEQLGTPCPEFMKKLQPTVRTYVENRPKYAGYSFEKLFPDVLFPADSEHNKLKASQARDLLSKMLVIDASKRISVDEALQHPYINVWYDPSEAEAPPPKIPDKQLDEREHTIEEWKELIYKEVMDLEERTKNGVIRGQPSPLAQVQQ
Chain of c-Jun N-terminal kinase (Mus musculus) (Q9WTU6 whole entry, looked up): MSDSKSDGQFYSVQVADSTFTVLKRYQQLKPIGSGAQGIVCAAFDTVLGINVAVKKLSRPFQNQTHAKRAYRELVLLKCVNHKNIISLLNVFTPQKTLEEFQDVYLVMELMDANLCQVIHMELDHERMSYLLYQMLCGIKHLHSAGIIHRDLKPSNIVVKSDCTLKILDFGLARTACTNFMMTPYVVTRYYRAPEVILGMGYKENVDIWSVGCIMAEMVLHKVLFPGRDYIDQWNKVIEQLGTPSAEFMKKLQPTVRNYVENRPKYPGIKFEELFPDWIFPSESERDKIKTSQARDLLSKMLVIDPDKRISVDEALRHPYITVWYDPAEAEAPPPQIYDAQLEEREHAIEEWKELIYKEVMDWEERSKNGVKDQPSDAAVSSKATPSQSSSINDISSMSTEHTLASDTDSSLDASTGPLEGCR

## CC(C)(C)CNc1ncc(Br)c(Nc2ccccc2C(N)=O)n1
[1]
  inhibition: 71.1%
[2]
  inhibition: 99.6%
[3]
  IC50: 33.5 nM
[4]
  IC50: 113 nM
[5]
  inhibition: 25.9%
[6]
  inhibition: 18.7%
[7]
  inhibition: 93.8%
[8]
  inhibition: 8.7%
[9]
  inhibition: 2.35%
[10]
  inhibition: 4.96%
[11]
  inhibition: Dose-Dependent Effect
[12]
  inhibition: Dose-Dependent Effect
[13]
  MRT inf: 2.85 h
[14]
  Cmax: 488 ng/mL
[15]
  Activity: Active
[16]
  Activity: Active
[17]
  Activity: Active
[18]
  Activity: 100%
[19]
  Activity: Active
